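Assay format: 96-well plates, 48-hour exposure. Abbreviation: GI50, concentration required for 50% inhibition of growth. At the TGI there is no net growth.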
Experiments:
Assay in all cases: NCI-60 cell line screen, 48 h
786-0 renal = tested on: 786-0 renal
A498 renal = tested on: A498 renal
A549 NSCLC = tested on: A549 NSCLC
BT-549 breast = tested on: BT-549 breast
CAKI-1 renal = tested on: CAKI-1 renal
CCRF-CEM leukemia = tested on: CCRF-CEM leukemia
COLO 205 colon = tested on: COLO 205 colon
DU-145 prostate = tested on: DU-145 prostate
EKVX NSCLC = tested on: EKVX NSCLC
HCC-2998 colon = tested on: HCC-2998 colon
HCT-116 colon = tested on: HCT-116 colon
HCT-15 colon = tested on: HCT-15 colon
HL-60(TB) leukemia = tested on: HL-60(TB) leukemia
HOP-62 NSCLC = tested on: HOP-62 NSCLC
HOP-92 NSCLC = tested on: HOP-92 NSCLC
HS 578T breast = tested on: HS 578T breast
HT29 colon = tested on: HT29 colon
IGROV1 ovarian = tested on: IGROV1 ovarian
K-562 leukemia = tested on: K-562 leukemia
KM12 colon = tested on: KM12 colon
LOX IMVI melanoma = tested on: LOX IMVI melanoma
M14 melanoma = tested on: M14 melanoma
MALME-3M melanoma = tested on: MALME-3M melanoma
MCF7 breast = tested on: MCF7 breast
MDA-MB-231 breast = tested on: MDA-MB-231 breast
MDA-MB-435 = tested on: MDA-MB-435
MOLT-4 leukemia = tested on: MOLT-4 leukemia
NCI-H226 lung = tested on: NCI-H226 lung
NCI-H23 lung = tested on: NCI-H23 lung
NCI-H460 lung = tested on: NCI-H460 lung
NCI/ADR-RES ovarian = tested on: NCI/ADR-RES ovarian
OVCAR-3 ovarian = tested on: OVCAR-3 ovarian
OVCAR-4 ovarian = tested on: OVCAR-4 ovarian
OVCAR-5 ovarian = tested on: OVCAR-5 ovarian
OVCAR-8 ovarian = tested on: OVCAR-8 ovarian
PC-3 prostate = tested on: PC-3 prostate
RPMI-8226 leukemia = tested on: RPMI-8226 leukemia
RXF 393 renal = tested on: RXF 393 renal
SF-268 CNS = tested on: SF-268 CNS
SF-295 CNS = tested on: SF-295 CNS
SF-539 CNS = tested on: SF-539 CNS
SK-MEL-2 melanoma = tested on: SK-MEL-2 melanoma
SK-MEL-28 melanoma = tested on: SK-MEL-28 melanoma
SK-MEL-5 melanoma = tested on: SK-MEL-5 melanoma
SK-OV-3 ovarian = tested on: SK-OV-3 ovarian
SN12C renal = tested on: SN12C renal
SNB-19 CNS = tested on: SNB-19 CNS
SNB-75 CNS = tested on: SNB-75 CNS
SR leukemia = tested on: SR leukemia
SW-620 colon = tested on: SW-620 colon
T-47D breast = tested on: T-47D breast
TK-10 renal = tested on: TK-10 renal
U251 CNS = tested on: U251 CNS
UACC-257 melanoma = tested on: UACC-257 melanoma
UACC-62 melanoma = tested on: UACC-62 melanoma
UO-31 renal = tested on: UO-31 renal
ACHN renal = tested on: ACHN renal
NCI-H522 lung = tested on: NCI-H522 lung

Work on `CCOC(OCC)C(CCc1ccccc1)c1c(N)nc(N)[nH]c1=O` (stereo not given) yielded a TGI (786-0 renal) of over 100 µM, a TGI (A498 renal) of over 100 µM and a TGI (A549 NSCLC) of over 100 µM. It also gave a TGI (BT-549 breast) of over 100 µM, a TGI (CAKI-1 renal) of over 100 µM and a TGI (CCRF-CEM leukemia) of over 100 µM. For the same molecule, the TGI (COLO 205 colon) was 49.3 µM, the TGI (DU-145 prostate) was over 100 µM and the TGI (EKVX NSCLC) was 22.3 µM. The TGI (HCC-2998 colon) was over 100 µM, the TGI (HCT-116 colon) was over 100 µM and the TGI (HCT-15 colon) was over 100 µM. For the same molecule, the TGI (HL-60(TB) leukemia) was over 100 µM, the TGI (HOP-62 NSCLC) was over 100 µM and the TGI (HOP-92 NSCLC) was 86.8 µM. The TGI (HS 578T breast) was over 100 µM, the TGI (HT29 colon) was over 100 µM and the TGI (IGROV1 ovarian) was over 100 µM. It also gave a TGI (K-562 leukemia) of 84.7 µM, a TGI (KM12 colon) of over 100 µM and a TGI (LOX IMVI melanoma) of over 100 µM. The TGI (M14 melanoma) was over 100 µM, the TGI (MALME-3M melanoma) was over 100 µM and the TGI (MCF7 breast) was over 100 µM. For the same molecule, the TGI (MDA-MB-231 breast) was over 100 µM, the TGI (MDA-MB-435) was over 100 µM and the TGI (MOLT-4 leukemia) was over 100 µM. The TGI (NCI-H226 lung) was over 100 µM, the TGI (NCI-H23 lung) was over 100 µM and the TGI (NCI-H460 lung) was over 100 µM. For the same molecule, the TGI (NCI/ADR-RES ovarian) was over 100 µM, the TGI (OVCAR-3 ovarian) was over 100 µM and the TGI (OVCAR-4 ovarian) was over 100 µM. For the same molecule, the TGI (OVCAR-5 ovarian) was 73.3 µM, the TGI (OVCAR-8 ovarian) was over 100 µM and the TGI (PC-3 prostate) was over 100 µM. It also gave a TGI (RPMI-8226 leukemia) of over 100 µM, a TGI (RXF 393 renal) of over 100 µM and a TGI (SF-268 CNS) of over 100 µM. The TGI (SF-295 CNS) was over 100 µM, the TGI (SF-539 CNS) was over 100 µM and the TGI (SK-MEL-2 melanoma) was over 100 µM. The TGI (SK-MEL-28 melanoma) was over 100 µM, the TGI (SK-MEL-5 melanoma) was over 100 µM and the TGI (SK-OV-3 ovarian) was 90.7 µM. The TGI (SN12C renal) was over 100 µM, the TGI (SNB-19 CNS) was over 100 µM and the TGI (SNB-75 CNS) was over 100 µM. For the same molecule, the TGI (SR leukemia) was over 100 µM, the TGI (SW-620 colon) was over 100 µM and the TGI (T-47D breast) was over 100 µM. For the same molecule, the TGI (TK-10 renal) was over 100 µM, the TGI (U251 CNS) was over 100 µM and the TGI (UACC-257 melanoma) was over 100 µM. It also gave a TGI (UACC-62 melanoma) of over 100 µM and a TGI (UO-31 renal) of over 100 µM.
Molecule `CC12C=CC(C)(O1)C1C2c2ccccc2S1(=O)=O` (stereo not given) has a GI50 (786-0 renal) of over 100 µM, a TGI (786-0 renal) of over 100 µM and a GI50 (A498 renal) of over 100 µM. The TGI (A498 renal) was over 100 µM, the GI50 (A549 NSCLC) was over 100 µM and the TGI (A549 NSCLC) was over 100 µM. For the same molecule, the GI50 (ACHN renal) was 69.2 µM, the TGI (ACHN renal) was over 100 µM and the GI50 (BT-549 breast) was 21.6 µM. For the same molecule, the TGI (BT-549 breast) was 81.6 µM, the GI50 (CAKI-1 renal) was 82 µM and the TGI (CAKI-1 renal) was over 100 µM. The GI50 (CCRF-CEM leukemia) was 28.2 µM, the TGI (CCRF-CEM leukemia) was over 100 µM and the GI50 (COLO 205 colon) was over 100 µM. The TGI (COLO 205 colon) was over 100 µM, the GI50 (DU-145 prostate) was 50.3 µM and the TGI (DU-145 prostate) was over 100 µM. It also gave a GI50 (EKVX NSCLC) of 92.9 µM, a TGI (EKVX NSCLC) of over 100 µM and a GI50 (HCC-2998 colon) of over 100 µM. The TGI (HCC-2998 colon) was over 100 µM, the GI50 (HCT-116 colon) was 47.9 µM and the TGI (HCT-116 colon) was over 100 µM. It also gave a GI50 (HCT-15 colon) of 38.4 µM, a TGI (HCT-15 colon) of over 100 µM and a GI50 (HL-60(TB) leukemia) of over 100 µM. For the same molecule, the TGI (HL-60(TB) leukemia) was over 100 µM, the GI50 (HOP-62 NSCLC) was over 100 µM and the TGI (HOP-62 NSCLC) was over 100 µM. For the same molecule, the GI50 (HOP-92 NSCLC) was 58.6 µM, the TGI (HOP-92 NSCLC) was over 100 µM and the GI50 (HS 578T breast) was 46.2 µM. The TGI (HS 578T breast) was over 100 µM, the GI50 (HT29 colon) was over 100 µM and the TGI (HT29 colon) was over 100 µM. The GI50 (IGROV1 ovarian) was 25.1 µM, the TGI (IGROV1 ovarian) was 95.3 µM and the GI50 (K-562 leukemia) was 69.7 µM. It also gave a TGI (K-562 leukemia) of over 100 µM, a GI50 (KM12 colon) of over 100 µM and a TGI (KM12 colon) of over 100 µM. It also gave a GI50 (LOX IMVI melanoma) of 46.6 µM, a TGI (LOX IMVI melanoma) of over 100 µM and a GI50 (M14 melanoma) of 25 µM. For the same molecule, the TGI (M14 melanoma) was over 100 µM, the GI50 (MALME-3M melanoma) was 50.3 µM and the TGI (MALME-3M melanoma) was over 100 µM. For the same molecule, the GI50 (MCF7 breast) was 50.4 µM, the TGI (MCF7 breast) was over 100 µM and the GI50 (MDA-MB-231 breast) was 69.9 µM. For the same molecule, the TGI (MDA-MB-231 breast) was over 100 µM, the GI50 (MDA-MB-435) was 52.1 µM and the TGI (MDA-MB-435) was over 100 µM. For the same molecule, the GI50 (MOLT-4 leukemia) was 62.7 µM, the TGI (MOLT-4 leukemia) was over 100 µM and the GI50 (NCI-H226 lung) was 42 µM. It also gave a TGI (NCI-H226 lung) of over 100 µM, a GI50 (NCI-H23 lung) of 46.6 µM and a TGI (NCI-H23 lung) of over 100 µM. For the same molecule, the GI50 (NCI-H460 lung) was over 100 µM, the TGI (NCI-H460 lung) was over 100 µM and the GI50 (NCI-H522 lung) was 33.6 µM. For the same molecule, the TGI (NCI-H522 lung) was over 100 µM, the GI50 (NCI/ADR-RES ovarian) was over 100 µM and the TGI (NCI/ADR-RES ovarian) was over 100 µM. For the same molecule, the GI50 (OVCAR-3 ovarian) was 52.7 µM, the TGI (OVCAR-3 ovarian) was over 100 µM and the GI50 (OVCAR-4 ovarian) was 31.6 µM. It also gave a TGI (OVCAR-4 ovarian) of over 100 µM, a GI50 (OVCAR-5 ovarian) of over 100 µM and a TGI (OVCAR-5 ovarian) of over 100 µM. It also gave a GI50 (OVCAR-8 ovarian) of over 100 µM, a TGI (OVCAR-8 ovarian) of over 100 µM and a GI50 (PC-3 prostate) of 66.8 µM. It also gave a TGI (PC-3 prostate) of over 100 µM, a GI50 (RPMI-8226 leukemia) of 44.3 µM and a TGI (RPMI-8226 leukemia) of over 100 µM. For the same molecule, the GI50 (RXF 393 renal) was 0.637 µM, the TGI (RXF 393 renal) was 36.9 µM and the GI50 (SF-268 CNS) was 68 µM. For the same molecule, the TGI (SF-268 CNS) was over 100 µM, the GI50 (SF-295 CNS) was over 100 µM and the TGI (SF-295 CNS) was over 100 µM. The GI50 (SF-539 CNS) was 85.4 µM, the TGI (SF-539 CNS) was over 100 µM and the GI50 (SK-MEL-28 melanoma) was 91.9 µM. For the same molecule, the TGI (SK-MEL-28 melanoma) was over 100 µM, the GI50 (SK-MEL-5 melanoma) was 38.7 µM and the TGI (SK-MEL-5 melanoma) was over 100 µM. For the same molecule, the GI50 (SK-OV-3 ovarian) was over 100 µM, the TGI (SK-OV-3 ovarian) was over 100 µM and the GI50 (SN12C renal) was 64.4 µM. It also gave a TGI (SN12C renal) of over 100 µM, a GI50 (SNB-19 CNS) of over 100 µM and a TGI (SNB-19 CNS) of over 100 µM. For the same molecule, the GI50 (SNB-75 CNS) was 23.2 µM, the TGI (SNB-75 CNS) was over 100 µM and the GI50 (SR leukemia) was 15.6 µM. The TGI (SR leukemia) was over 100 µM, the GI50 (SW-620 colon) was 39.9 µM and the TGI (SW-620 colon) was over 100 µM. For the same molecule, the GI50 (T-47D breast) was 95.5 µM, the TGI (T-47D breast) was over 100 µM and the GI50 (TK-10 renal) was over 100 µM. For the same molecule, the TGI (TK-10 renal) was over 100 µM, the GI50 (U251 CNS) was over 100 µM and the TGI (U251 CNS) was over 100 µM. For the same molecule, the GI50 (UACC-257 melanoma) was 41.7 µM, the TGI (UACC-257 melanoma) was over 100 µM and the GI50 (UACC-62 melanoma) was over 100 µM. The TGI (UACC-62 melanoma) was over 100 µM, the GI50 (UO-31 renal) was over 100 µM and the TGI (UO-31 renal) was over 100 µM.
